Consider 16 molecules from patent publication US20250241926A1, “HETEROCYCLIC COMPOUNDS FOR USE IN THE TREATMENT OF CANCER” (ARTIOS PHARMA LIMITED, priority 2021, published 2025).

The first assay deals with T1, Human Polθ polymerase domain (aa1820-2590) (Homo sapiens, UniProt O75417).
T1 construct: Human Polθ polymerase domain (aa1820-2590) was expressed in E. Coli; made in house; host or cells: E. coli
T1 sequence (O75417 1820-2590): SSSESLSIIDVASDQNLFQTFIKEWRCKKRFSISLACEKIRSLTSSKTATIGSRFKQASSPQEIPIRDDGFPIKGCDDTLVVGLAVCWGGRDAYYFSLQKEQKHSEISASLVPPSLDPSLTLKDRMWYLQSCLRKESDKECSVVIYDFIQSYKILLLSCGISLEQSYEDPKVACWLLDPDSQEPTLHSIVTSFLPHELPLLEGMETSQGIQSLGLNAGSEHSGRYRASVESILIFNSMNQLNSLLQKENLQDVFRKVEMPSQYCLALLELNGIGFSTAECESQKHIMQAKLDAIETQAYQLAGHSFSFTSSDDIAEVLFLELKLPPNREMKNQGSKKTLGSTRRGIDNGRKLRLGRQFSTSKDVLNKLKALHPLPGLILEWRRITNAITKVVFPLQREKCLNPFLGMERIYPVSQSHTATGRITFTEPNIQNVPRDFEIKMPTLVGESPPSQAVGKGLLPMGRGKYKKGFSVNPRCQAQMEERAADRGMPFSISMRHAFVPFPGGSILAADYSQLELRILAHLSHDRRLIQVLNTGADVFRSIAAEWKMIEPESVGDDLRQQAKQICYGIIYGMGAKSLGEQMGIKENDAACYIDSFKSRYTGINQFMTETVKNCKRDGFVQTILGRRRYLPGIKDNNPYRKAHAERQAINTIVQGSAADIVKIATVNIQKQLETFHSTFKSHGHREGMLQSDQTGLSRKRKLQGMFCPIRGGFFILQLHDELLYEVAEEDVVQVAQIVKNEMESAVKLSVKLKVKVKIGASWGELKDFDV
The assay can be described thus: Polθ Polymerase Domain Kinact/Kl Assay (PicoGreen). The assay is classed as biochemical. Particulars: covalent inhibitors, kobs vs [I] fit, 0.8 nM Polθ, 100 nM DNA substrate. The gist of the method: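 E. coli-expressed enzyme (0.8 nM final) was run with 100 nM annealed DNA substrate and dNTPs in Tris pH 7.5 buffer (1% DMSO), with EDTA stops across a time course up to 60 min. Synthesised DNA was read by PicoGreen fluorescence. kobs per inhibitor concentration was fitted from the time courses, and Kinact and KI came from the kobs-vs-[I] plot.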
As to `C=CC(=O)N1CC(O[C@@H]2CN(CCN3CC[C@H](Nc4nc(C)cc(C(F)(F)F)c4C#N)C(=O)N(C)c4cccc(F)c43)C[C@H]2O)C1` [Example 65A, 2-(((S)-6-(2-((3S/R,4S/R)-3-((1-Acryloylazetidin-3-yl)oxy)-4-hydroxypyrrolidin-1-yl)ethyl)-7-fluoro-1-methyl-2-oxo-1,2,3,4,5,6-hexahydrobenzo[b][1,4]diazocin-3-yl)amino)-6-methyl-4-(trifluoromethyl)nicotinonitrile], the kinact/KI was found to be 460000 M⁻¹ s⁻¹.
The same measure, in the same setting: to “(S)-2-((6-(2-(3-(4-Acrylo- ylpiperazin-1-yl)azetidin- 1-yl)ethyl)-7-fluoro-1- methyl-2-oxo-1,2,3,4,5,6- hexahydrobenzo[b][1,4] diazocin-3-yl)amino)-6- methyl-4-(trifluorometh- yl)nicotinonitrile [Example 10]” belongs 190000 M⁻¹ s⁻¹; to “(S)-2-((6-(2-(4-(1-Acrylo- yl-3-hydroxyazetidin-3- yl)piperidin-1-yl)ethyl)-7- fluoro-1-methyl-2-oxo- 1,2,3,4,5,6-hexahydro- benzo[b][1,4]diazocin-3- yl)amino)-6-methyl-4- (trifluoromethyl)nicotino- nitrile [Example 12]”, 440000 M⁻¹ s⁻¹; to “(S)-2-((6-(2-(4-(1-Acrylo- ylazetidin-3-yl)piperazin- 1-yl)ethyl)-7-fluoro-1- methyl-2-oxo-1,2,3,4,5,6- hexahydrobenzo[b][1,4] diazocin-3-yl)amino)-6- methyl-4-(trifluorometh- yl)nicotinonitrile [Example 11]”, 500000 M⁻¹ s⁻¹.
“(S,E)-2-((6-(2-(2- (4-(Dimethyl- amino)but-2-eno- yl)-5-methyl-7- oxo-2,5,8-triaza- spiro[3.5]nonan-8- yl)ethyl)-7-fluoro- 1-methyl-2-oxo- 1,2,3,4,5,6-hexa- hydrobenzo[b] [1,4]diazocin-3- yl)amino)-6-meth- yl-4-(trifluoro- methyl)nicotino- nitrile [Example 46]”: the kinact/KI worked out at 560000 M⁻¹ s⁻¹.
Consider “(S,E)-2-((6-(2-((2- (4-(Dimethyl- amino)but-2-eno- yl)-2-azaspiro[3.3] heptan-6-yl)-oxy)- ethyl)-7-fluoro-1- methyl-2-oxo- 1,2,3,4,5,6-hexa- hydrobenzo[b] [1,4]diazocin-3- yl)amino)-6-meth- yl-4-(trifluoro- methyl)nicotino- nitrile [Example 45]”, for which the kinact/KI was determined as 5.7e+06 M⁻¹ s⁻¹.

Staying with this assay, now noted: covalent inhibitors, kobs vs [I] fit, 0.8 nM Polθ, 100 nM DNA substrate, read-out: Kinact/KI.
Regarding `C=CC(=O)N1CC2(CN(CCN3CC[C@H](Nc4nc(C)cc(C(F)(F)F)c4C#N)C(=O)N(C)c4cccc(F)c43)C[C@@H]3COCCN32)C1` [Example 61, 2-(((S)-6-(2-((R)-1-A cryloyltetrahydro-1′H-spiro[azetidine-3,6′-pyrazino[2,1-c][1,4]oxazin]-8′(7′H)-yl)ethyl)-7-fluoro-1-methyl-2-oxo-1,2,3,4,5,6-hexahydrobenzo[b][1,4]diazocin-3-yl)amino)-6-methyl-4-(trifluoromethyl)nicotinonitrile], the kinact/KI amounted to 500000 M⁻¹ s⁻¹.
Take `C=CC(=O)N1CC2(CN(CCN3CC[C@H](Nc4nc(C)cc(C(F)(F)F)c4C#N)C(=O)N(C)c4cccc(F)c43)C[C@H]3COCCN32)C1` [Example 62, 2-(((S)-6-(2-((S)-1-Acryloyltetrahydro-1′H-spiro[azetidine-3,6′-pyrazino[2,1-c][1,4]oxazin]-8′(7′H)-yl)ethyl)-7-fluoro-1-methyl-2-oxo-1,2,3,4,5,6-hexahydrobenzo[b][1,4]diazocin-3-yl)amino)-6-methyl-4-(trifluoromethyl)nicotinonitrile]: the kinact/KI worked out at 1.8e+06 M⁻¹ s⁻¹.
The same measure, in the same setting: to `C=CC(=O)N1CC2(CN(CCN3CC[C@H](Nc4nc(C)cc(C(F)(F)F)c4C#N)C(=O)N(C)c4cccc(F)c43)C[C@@H](C)N2)C1` [Example 63, 2-(((S)-6-(2-((R)-2-Acryloyl-6-methyl-2,5,8-triazaspiro[3.5]nonan-8-yl)ethyl)-7-fluoro-1-methyl-2-oxo-1,2,3,4,5,6-hexahydrobenzo[b][1,4]diazocin-3-yl)amino)-6-methyl-4-(trifluoromethyl)nicotinonitrile] belongs 860000 M⁻¹ s⁻¹; to `C=CC(=O)N1CC2(CN(CCN3CC[C@H](Nc4nc(C)cc(C(F)(F)F)c4C#N)C(=O)N(C)c4cccc(Cl)c43)C[C@@H](C)N2)C1` [Example 64, 2-(((S)-6-(2-((R)-2-Acryloyl-6-methyl-2,5,8-triazaspiro[3.5]nonan-8-yl)ethyl)-7-chloro-1-methyl-2-oxo-1,2,3,4,5,6-hexahydrobenzo[b][1,4]diazocin-3-yl)amino)-6-methyl-4-(trifluoromethyl)nicotinonitrile], 1.8e+06 M⁻¹ s⁻¹; to `C=CC(=O)N1CC(n2cnc(CN3CC[C@H](Nc4nc(C)cc(C(F)(F)F)c4C#N)C(=O)N(C)c4cccc(F)c43)n2)C1` [Example 66, (S)-2-((6-((1-(1-Acryloylazetidin-3-yl)-1H-1,2,4-triazol-3-yl)methyl)-7-fluoro-1-methyl-2-oxo-1,2,3,4,5,6-hexahydrobenzo[b][1,4]diazocin-3-yl)amino)-6-methyl-4-(trifluoromethyl)nicotinonitrile], 2.4e+06 M⁻¹ s⁻¹.
In the case of `C=CC(=O)N1CC(c2noc(CN3CC[C@H](Nc4nc(C)cc(C(F)(F)F)c4C#N)C(=O)N(C)c4cccc(F)c43)n2)C1` [Example 67, (S)-2-((6-((3-(1-Acryloylazetidin-3-yl)-1,2,4-oxadiazol-5-yl)methyl)-7-fluoro-1-methyl-2-oxo-1,2,3,4,5,6-hexahydrobenzo[b][1,4]diazocin-3-yl)amino)-6-methyl-4-(trifluoromethyl)nicotinonitrile], the kinact/KI was determined as 1.3e+06 M⁻¹ s⁻¹.
As to `C=CC(=O)N1CC(c2nnc(CN3CC[C@H](Nc4nc(C)cc(C(F)(F)F)c4C#N)C(=O)N(C)c4cccc(F)c43)[nH]2)C1` [Example 68, (S)-2-((6-((5-(1-Acryloylazetidin-3-yl)-4H-1,2,4-triazol-3-yl)methyl)-7-fluoro-1-methyl-2-oxo-1,2,3,4,5,6-hexahydrobenzo[b][1,4]diazocin-3-yl)amino)-6-methyl-4-(trifluoromethyl)nicotinonitrile], the kinact/KI was 130000 M⁻¹ s⁻¹.
For the molecule `C=CC(=O)N1CC2(CN(CCN3CC[C@H](Nc4nc(C)cc(C(F)(F)F)c4C#N)C(=O)N(C)c4cccc(C)c43)CCN2)C1` [Example 69, (S)-2-((6-(2-(2-Acryloyl-2,5,8-triazaspiro[3.5]nonan-8-yl)ethyl)-1,7-dimethyl-2-oxo-1,2,3,4,5,6-hexahydrobenzo[b][1,4]diazocin-3-yl)amino)-6-methyl-4-(trifluoromethyl)nicotinonitrile], the kinact/KI turned out to be 4.1e+06 M⁻¹ s⁻¹.
For `C=CC(=O)N1CC2(CN(CCN3CC[C@H](Nc4nc(C)cc(C(F)(F)F)c4C#N)C(=O)N(CC)c4cccc(F)c43)CCN2)C1` [Example 70, (S)-2-((6-(2-(2-Acryloyl-2,5,8-triazaspiro[3.5]nonan-8-yl)ethyl)-1-ethyl-7-fluoro-2-oxo-1,2,3,4,5,6-hexahydrobenzo[b][1,4]diazocin-3-yl)amino)-6-methyl-4-(trifluoromethyl)nicotinonitrile], the kinact/KI was determined as 1.3e+06 M⁻¹ s⁻¹.
Still for that read-out and setting: to `C=CC(=O)N1CC2(CN(CCN3CC[C@H](Nc4nc(C)cc(C(F)(F)F)c4C#N)C(=O)N(C)c4cccc(F)c43)CCN2C(C)=O)C1` [Example 71, (S)-2-((6-(2-(5-Acetyl-2-acryloyl-2,5,8-triazaspiro[3.5]nonan-8-yl)ethyl)-7-fluoro-1-methyl-2-oxo-1,2,3,4,5,6-hexahydrobenzo[b][1,4]diazocin-3-yl)amino)-6-methyl-4-(trifluoromethyl)nicotinonitrile] belongs 1.4e+06 M⁻¹ s⁻¹.
